According to PMC9377236, “Cytotoxic effects of extracts obtained from plants of the Oleaceae family: bio-guided isolation and molecular docking of new secoiridoids from Jasminum humile” (Pharmaceutical Biology, 2022):
Values after ≈ are worked out from the molar mass of the structure shown.

Experiments:
[1] = test system: HepG-2 cell line; test: MTT cytotoxicity assay, HepG-2; assay type: cell-based, human; settings: for IC50: Homo sapiens, HepG2, HepG-2 liver cancer cell line, MTT assay, mean ± SD; for SI, HepG-2: selectivity index = CC50 (Vero) / IC50 (HepG-2)
Protocol: (§1) The cytotoxic potential was measured against Vero cells as well as MCF-7, HepG-2, and THP-1 cell lines provided from VACSERA, Agouza, Cairo, Egypt using a microplate 3-(4,5-dimethythiazole-2yl)-2,5-diphenyl-tetrazolium bromide (MTT) method (Ashour et al. [2006]; Njeru and Muema [2007]). All experiments were repeated three times with doxorubicin (Sigma, USA) as a positive control and 0.1% DMSO media as the negative control, respectively.
(§2) The selectivity index (SI) was obtained after dividing the IC50 value of Vero cells (which can be expressed as CC50) by the specific IC50 of cancer cell lines. High (SI) indicates high anticancer activity and low cellular toxicity. Selectivity was considered to be valuable for those with (SI) greater than three (Oliveira et al. [2015]; Tsemeugne et al. [2021]; Yousefbeyk et al. [2022]).
(§3) All statistical analyses were performed using GraphPad Prism version 9.2.0 to calculate the half-maximal inhibitory concentration (IC50) and the half-maximal cytotoxic concentration (CC50) where the level of significance was set at ([…]). Quantitative data were expressed as mean ± standard deviation (SD). GraphPad Prism version 9.2.0 was also used to create multiple bar charts of the cytotoxic activity and cell viability.

[2] = test system: MCF-7 cell line; test: MTT cytotoxicity assay, MCF-7; assay type: cell-based, human; settings: for IC50: Homo sapiens, MCF7, MCF-7 breast cancer cell line, MTT assay, mean ± SD; for SI, MCF-7: selectivity index = CC50 (Vero) / IC50 (MCF-7)
Protocol: as §1, §2, §3

[3] = MTT assay, cytotoxic concentration (CC50) on Vero cells; assay type: cell-based; settings: African green monkey, mean ± SD, three repeats
Protocol: as §1, §3

[4] = test system: THP-1 cell line; test: MTT cytotoxicity assay, THP-1; assay type: cell-based, human; settings: for IC50: Homo sapiens, THP-1 leukaemia cell line, MTT assay, mean ± SD; for SI, THP-1: selectivity index = CC50 (Vero) / IC50 (THP-1)
Protocol: as §1, §2, §3

| SMILES | IC50 [1] | SI, HepG-2 [1] | IC50 [2] | SI, MCF-7 [2] | CC50 [3] | IC50 [4] | SI, THP-1 [4] |
| --- | --- | --- | --- | --- | --- | --- | --- |
| CC=C1C(OC2OC(CO)C(O)C(O)C2O)OC=C2C(=O)OCC(C)C3(O)CCC(C)C3COC(=O)CC21 (centres unmarked) [Compound 4, isojasminin] | 33.5 ± 2.32 µg/mL (≈ 61.7 µM) | 3.03 | 43.1 ± 3.02 µg/mL (≈ 79.5 µM) | 2.35 | 102 ± 3.03 µg/mL (≈ 187 µM) | 51.1 ± 10.3 µg/mL (≈ 94.1 µM) | 1.99 |
| O=c1ccc2ccccc2o1 [Compound 6, coumarin] | 165 ± 7.08 µg/mL (≈ 1130 µM) | 1.19 | 194 ± 8.8 µg/mL (≈ 1330 µM) | 1.01 | 196 ± 13.3 µg/mL (≈ 1340 µM) | 296 ± 25.7 µg/mL (≈ 2020 µM) | 0.66 |
| CC=C1C(OC2OC(CO)C(O)C(O)C2O)OC=C(C(=O)OC)C1CC(=O)OCC(C)C1CC2OC(=O)C3=COC(OC4OC(CO)C(O)C(O)C4O)C(=CC)C3CC(=O)OCC1C2C (centres unmarked) [Compound 5, jasmoside] | 66.5 ± 8.15 µg/mL (≈ 71.6 µM) | 3.16 | 41.3 ± 1.77 µg/mL (≈ 44.5 µM) | 5.09 | 210 ± 5.05 µg/mL (≈ 226 µM) | 27.6 ± 4.63 µg/mL (≈ 29.7 µM) | 7.62 |
| COc1cccc2c1C(=O)c1c(O)c3c(c(O)c1C2=O)C[C@@](O)(C(=O)CO)C[C@@H]3O[C@H]1C[C@H](N)[C@H](O)[C@H](C)O1 [Doxorubicin, doxorubicin, reference compound] | 31.6 ± 6.58 µg/mL (≈ 58.2 µM) | 3.65 | 52.8 ± 5.36 µg/mL (≈ 97.1 µM) | 2.19 | 116 ± 6.1 µg/mL (≈ 213 µM) | 47.8 ± 7.03 µg/mL (≈ 88 µM) | 2.41 |
| CC(CO)C1CC2OC(=O)C3=COC(C)C(C=O)C3CC(=O)OCC1C2C (single isomer, unassigned; (-)) [Compound 2, (-)-1-Methyl-9-aldojasmigenin] | 43.3 ± 4.78 µg/mL (≈ 114 µM) | 1.40 | 60.6 ± 2.3 µg/mL (≈ 159 µM) | 1.00 | 60.5 ± 2.72 µg/mL (≈ 159 µM) | 68.9 ± 9.71 µg/mL (≈ 181 µM) | 0.88 |
| OC[C@@H](O)[C@@H](O)[C@H](O)[C@H](O)CO [Compound 7, D-mannitol] | 69.1 ± 12.3 µg/mL (≈ 379 µM) | 2.52 | 161 ± 11.9 µg/mL (≈ 882 µM) | 1.09 | 173 ± 6.2 µg/mL (≈ 951 µM) | 214 ± 22.1 µg/mL (≈ 1180 µM) | 0.81 |
| CC=C1C(OC)OC=C2C(=O)OC3CC(C(C)CO)C(COC(=O)CC21)C3C (single isomer, unassigned; (-)) [Compound 1, (-)-1-Methoxyjasmigenin] | 59.8 ± 1.45 µg/mL (≈ 152 µM) | 1.03 | 78.9 ± 1.79 µg/mL (≈ 200 µM) | 0.78 | 61.7 ± 1.26 µg/mL (≈ 156 µM) | 91.5 ± 14.9 µg/mL (≈ 232 µM) | 0.67 |
| CC=C1C(OC2OC(CO)C(O)C(O)C2O)OC=C2C(=O)OC3CC(C(C)CO)C(COC(=O)CC21)C3C (centres unmarked) [Compound 3, jasminin] | 44.2 ± 4.32 µg/mL (≈ 81.5 µM) | 1.01 | 28.6 ± 1.18 µg/mL (≈ 52.7 µM) | 1.57 | 44.7 ± 1.84 µg/mL (≈ 82.4 µM) | 82.7 ± 15.7 µg/mL (≈ 152 µM) | 0.54 |
